Experimental findings from patent US20090253634A1, “Methods and Compositions for the Treatment of Gastrointestinal Disorders” (MICROBIA, INC., priority 2005, published 2009) are described below.

Bridge positions count the residues as written; N and C are the ends. Peptide text beside a SMILES is read from it.

The test system of assay [1] is gastrointestinal transit. As to the kind of experiment: rat gastrointestinal transit (GIT) assay. The format is in vivo, CD rats. How it is done:
In order to determine whether the peptides increase the rate of gastrointestinal transit, the peptides and controls were tested using a murine gastrointestinal transit (GIT) assay (Moon et al. Infection and Immunity 25:127, 1979). In this assay, charcoal, which can be readily visualized in the gastrointestinal tract is administered to mice after the administration of a test compound. The distance traveled by the charcoal is measured and expressed as a percentage of the total length of the […].
Mice were fasted with free access to water for 12 to 16 hours before the treatment with peptide or control buffer. The peptides were orally administered at 1 μg/kg-1 mg/kg of peptide in buffer ([…] pH 7.5) 7 minutes before being given an oral dose of 5% Activated Carbon (Aldrich 242276-250G). Control mice were administered buffer only before being given a dose of Activated Carbon. After 15 minutes, the mice were sacrificed and their intestines from the stomach to the cecum were dissected. The total length of the intestine as well as the distance traveled from the stomach to the charcoal front was measured for each animal and the results are expressed as the percent of the total length of the intestine traveled by the charcoal front. All results are reported as the average of 10 mice±standard deviation. […] P-values are calculated using a two-sided T-Test assuming unequal variances. […]

For assay [2], the system named is gastrointestinal transit. Description: gastrointestinal transit assay in wild-type and GC-C KO mice. In kind it is in vivo. The settings on record: oral 100 μg/kg. How it is done: Wild type and GC-C KO mice were fasted overnight and SEQ ID NO: 3 or vehicle alone were orally administered 10 minutes prior to an oral dose of a 10% Activated Carbon/10% Gum Arabic suspension. Animals were sacrificed […] after peptide or vehicle administration.

Assay [3] deals with abdominal response to colorectal distension. As to the kind of experiment: TNBS visceral hypersensitivity rat model (colorectal distension, EMG). In kind it is in vivo, Wistar rats. As to conditions: 0.3 μg/kg and 3 μg/kg; given one hour before CRD. How it is done: Male Wistar rats (220-250 g) were premedicated with 0.5 mg/kg of acepromazine injected intraperitoneally (IP) and anesthetized by intramuscular administration of 100 mg/kg of ketamine. Pairs of nichrome wire electrodes (60 cm in length and 80 μm in diameter) were implanted in the striated muscle of the abdomen, 2 cm laterally from the white line. The free ends of electrodes were exteriorized on the back of the neck and protected by a plastic tube attached to the skin. Electromyographic (EMG) recordings were started 5 days after surgery. Electrical activity of abdominal striated muscle was recorded with an electroencephalograph machine (Mini VIII, Alvar, Paris, France) using a short time constant (0.03 sec.) to remove low-frequency signals (<3 Hz).
Ten days post surgical implantation, trinitrobenzenesulphonic acid ([…]) was administered to induce rectal inflammation. TNBS (80 mg kg^−1 in 0.3 ml 50% ethanol) was administered intrarectally through a silicone rubber catheter introduced at 3 cm from the anus under light diethyl-ether anesthesia, as described (Morteau et al. 1994 Dig Dis Sci 39:1239). […] Evaluation of rectal sensitivity, as measured by EMG, was performed before (1-2 days) and 3 days following rectal instillation of TNBS.
The number of spike bursts that corresponds to abdominal contractions was determined per 5 min periods. […]

The test system of assay [4] is abdominal EMG response to colorectal distension. As to the kind of experiment: colorectal distension in WT and GC-C KO mice, basal and TNBS-induced. The format is in vivo. The settings on record: for TNBS induced hypersensitivity to CRD: oral 0.01 μg/kg. How it is done: TNBS induced visceral hypersensitivity was assessed in WT and GC-C KO mice. Two groups (WT and GC-C KO) of male mice (22-25g) were surgically prepared for electromyographic (EMG) recordings. Three electrodes were implanted in the striated muscles of the abdomen for EMG recording of abdominal contractions. Colorectal distension (CRD) was performed with a balloon inflated by 10 s steps of 0.02 ml from 0 to 0.12 ml. Under basal conditions mice were submitted to control CRD (time 0) followed by oral administration of SEQ ID NO:3 (0.01 and 0.3 μg/kg) or vehicle only (distilled water, 1 ml) at 3 hours. One hour post dosing the CRD procedure was repeated. Abdominal EMG contractile response to colorectal distension in basal conditions in both WT and GC-C KO mice (12-14 mice per group) was determined in the absence of vehicle and SEQ ID NO:3, and the mean +/− standard error of the mean (SEM) is graplhically depicted in FIG. 7c.
For TNBS induced visceral hypersensitivity conditions, mice were submitted to control CRD (time 0) and TNBS (20 mg/kg) was administered at 3 days. Three days post intracolonic TNBS-induction animals were orally admistered SEQ ID NO:3 (0.01 and 0.3 μg/kg) or vehicle (distilled water, 1 ml) 1 hour before CRD. The effect of SEQ ID NO:3 (0.01 μg/kg) on abdominal response to colorectal distension after TNBS in WT and GC-C KO mice (12-14 per group) at a volume distension of […] was determined and the mean +/− standard error of the mean (SEM) is graphically depicted in FIG. 7d.

A further assay deals with bowel habits. Description: seven-day oral dosing study of bowel habits in humans. The format is in vivo. How it is done:
Seven daily doses of 30, 100, 300, or 1000 μg of chemically synthesized SEQ ID NO:3 were given to 48 healthy subjects. SEQ ID NO:3 or placebo (vehicle) was administered orally in 5.0 mL 50 mM phosphate buffer (pH 6.0) plus 3×20 mL water rinses and 175 mL water after at least a 10-hour fast. In each dosing group, 8 subjects were randomized to receive SEQ ID NO:3 and 4 subjects were randomized to receive placebo. […] The Mean Ease of Passage (FIG. 15d) of stools was tested for subjects treated with 30-1000 μg SEQ ID NO:3.

For `C[C@@H]1NC(=O)[C@@H]2CCCN2C(=O)[C@H](CC(N)=O)NC(=O)[C@@H]2CSSC[C@H](N)C(=O)N[C@H]3CSSC[C@H](NC1=O)C(=O)N[C@@H]([C@@H](C)O)C(=O)NCC(=O)N[C@H](C(=O)N[C@@H](Cc1ccc(O)cc1)C(=O)O)CSSC[C@H](NC(=O)[C@H](Cc1ccc(O)cc1)NC(=O)[C@H](CCC(=O)O)NC3=O)C(=O)N2` [SEQ ID NO:3] (H-CCEYCCNPACTGCY-OH; disulfide 1-6, 2-10, 5-13; N-terminus and C-terminus assumed), the “intestinal transit, dose dependence” value in the assay with gastrointestinal transit [1] (female rats, similar effects in male rats, FIG. 4e) was “increases in a dose dependent manner”. The intestinal transit entry in the assay with gastrointestinal transit [1] (rat GIT assay, FIG. 4d) was “intestinal transit increases”. In addition, the “gastrointestinal transit rate versus vehicle” value in the assay on gastrointestinal transit [2] is “an increase (p<0.001) in gastrointestinal transit rate”. Also, the “abdominal response to colorectal distension after TNBS” value in assay [3] is “Significant decreases in abdominal response”. In addition, the “TNBS induced hypersensitivity to CRD” value in assay [4] (GC-C KO mice) is reported as “not observed”; in assay [4] (WT mice, volume distension of 0.8 ml) it was “reduces the TNBS induced hypersensitivity to CRD”. The “EMG response to colorectal distension” value in assay [4] (basal conditions, WT mice, oral 0.01 and 0.3 μg/kg) was “decreased the EMG response to colorectal distension”. In addition, the “Mean Ease of Passage of stools, baseline versus treatment, versus placebo” value in the assay on bowel habits (1000 μg dose group) was “greatest difference in baseline versus treatment values”. Further, the “Mean Stool Weight” value in the assay on bowel habits (seven daily oral doses 30-1000 μg, higher doses) was “increase in Mean Stool Weight”. Further, the “Mean Stool Frequency (stools per week)” value in the assay on bowel habits (seven daily oral doses 30-1000 μg, higher doses, healthy subjects) was “increase in Mean Stool Frequency score”.
